In ChEMBL document CHEMBL1136320, “Substrate properties of C5-substituted pyrimidine 2'-deoxynucleoside 5'-triphosphates for thermostable DNA polymerases during PCR” (Bioorg Med Chem Lett, 2003) one finds Activity data, which are given here for three molecules.

For assay [1], the system named is Nucleic Acid. Put plainly: Amount of full-length DNA product formed using Taq polymerase; No product detected. The assay is classed as functional.
Assay [2] concerns Nucleic Acid. Put plainly: Amount of full-length DNA product formed using polymerase A Tth; No product detected. The assay is classed as nucleic-acid assay.
Assay [3] has as its system Nucleic Acid. In words: Amount of full-length DNA product formed using polymerase B Vent (exo); range is 35-70%. The assay is classed as nucleic-acid assay.
The subject of assay [4] is Nucleic Acid. In words: Amount of full-length DNA product formed using polymerase A Thermo Sequenase; No product detected. It is filed as nucleic-acid assay.
In assay [5] the test system is Nucleic Acid. Put plainly: Amount of full-length DNA product formed using polymerase B Pfu. The assay is classed as nucleic-acid assay.
Assay [6] deals with Nucleic Acid. In words: Amount of full-length DNA product formed using polymerase B Deep vent (exo). It is filed as nucleic-acid assay.
The subject of assay [7] is Nucleic Acid. In words: Amount of full-length DNA product formed using polymerase B Pwo. It is filed as nucleic-acid assay.
Assay [8] relates to Nucleic Acid. In words: Amount of full-length DNA product formed using polymerase B Pwo; range is 35-70%. The assay is classed as nucleic-acid assay.
For assay [9], the system named is Nucleic Acid. In words: Amount of full-length DNA product formed using polymerase B Pfu; No product detected. The assay is classed as nucleic-acid assay.
The test system of assay [10] is Nucleic Acid. Put plainly: Amount of full-length DNA product formed using polymerase B Vent (exo); No product detected. The assay is classed as nucleic-acid assay.
In assay [11] the test system is Nucleic Acid. In words: Amount of full-length DNA product formed using polymerase B Pwo; No product detected. The assay is classed as nucleic-acid assay.
Assay [12] has as its system Nucleic Acid. Put plainly: Amount of full-length DNA product formed using polymerase B Deep vent (exo); No product detected. The assay is classed as nucleic-acid assay.

For the molecule `NCCOCCOCc1cn(C2CC(O)C(COP(=O)(O)OP(=O)(O)OP(=O)(O)O)O2)c(=O)[nH]c1=O` (stereo unspecified), the Activity result in the assay with Nucleic Acid [1] is “Not detected”; with Nucleic Acid [2] it was “Not detected”; in the assay with Nucleic Acid [3], 35%; with Nucleic Acid [4], “Not detected”; with Nucleic Acid [5], under 35%; in the assay with Nucleic Acid [6] it was under 35%. The same molecule yielded an Activity in the assay on Nucleic Acid [7] of under 35%.

In the case of `NCCOCCOCc1cn(C2CC(O)C(COP(=O)(O)OP(=O)(O)OP(=O)(O)O)O2)c(=O)nc1N` (stereo unspecified), the Activity result in the assay on Nucleic Acid [1] is “Not detected”; in the assay with Nucleic Acid [2], “Not detected”; with Nucleic Acid [8], 35%; in the assay on Nucleic Acid [3] it was 35%; in the assay with Nucleic Acid [4], “Not detected”; in the assay with Nucleic Acid [5], under 35%. In addition, the Activity in the assay with Nucleic Acid [6] is under 35%.

`CC#Cc1cn(C2CC(O)C(COP(=O)(O)OP(=O)(O)OP(=O)(O)O)O2)c(=O)nc1N` (stereo unspecified): the Activity result in the assay on Nucleic Acid [9], in the assay with Nucleic Acid [1], with Nucleic Acid [2], in the assay with Nucleic Acid [10], with Nucleic Acid [4] and in the assay on Nucleic Acid [11] was “Not detected” throughout. Also, the Activity result in the assay with Nucleic Acid [12] was “Not detected”.
